Source: article PMC10571957, “αV-Integrin-Dependent Inhibition of Glioblastoma Cell Migration, Invasion and Vasculogenic Mimicry by the uPAcyclin Decapeptide” (Cancers, 2023)
“And” between values parts separate entries of the source, which are not always exact repeats. Equal values may be shown once.

Assays:
[1] = system: U138-MG cells; experiment: Boyden chamber Matrigel invasion, U138-MG; type: cell-based, human; conditions: for invasion, % of basal, average 2 expts: mean of 2 expts; for invasion, % of basal, average expt 1: mean of expt 1; for invasion, % of basal, average expt 2: mean of expt 2; for invasion, % of basal, T-test list: single replicates of both expts
Protocol: (§1) The migration and invasion assays were performed using Boyden chambers and 8 µm pore size PVP-free filters coated with 50 µg/mL of collagen type VI (Sigma), as previously described. For the invasion assays, collagen-coated filters were further coated with 50 µg/mL Matrigel^TM (Sigma). Briefly, 11 × 10^4 U87-MG, 4 × 10^4 U251-MG, or 4 × 10^4 U138-MG/sample were pre-treated for 40 min at 37 °C with the indicated effectors. Then, the cells were allowed to migrate for 3 h or to invade for 5 h at 37 °C toward 5% FBS in DMEM/0.1% BSA. At the end of both assays, the cells on the lower filter surface were fixed, stained with haematoxylin, and counted under an optical microscope (Zeiss Axiophot, Carl Zeiss, Milan, Italy) at 20× magnification. The migration and invasion experiments were conducted in triplicate for U87-MG and in duplicate for U251-MG and U138-MG. The migrated or invaded cells were reported as percentage of basal migration or invasion in the presence of DMEM/0.1% BSA, taken as 100%, and analyzed as reported in Section 2.11.
(§2) Figure 4 Effect of uPAcyclin on matrix invasion of U87-MG, U251-MG, and U138-MG GBM cells. Quantitative analysis of U87-MG (A), U251-MG (B), and U138-MG (C) invasion. A total of 11 × 10^4 U87-MG or […] U251-MG or U138-MG/sample were pre-treated for 40 min at 37 °C with uPAcyclin (100 nM, 1 µM), anti-αV polyclonal (anti-αV-Pclonal) or monoclonal (anti-αV MoAb) antibody, or anti-actin polyclonal antibody (anti-actin), and then assayed in Boyden chambers at 37 °C, either for basal (BSA) or FBS-dependent invasion (5% FBS) for 5 h at 37 °C. Data are expressed as in the legend to Figure 3. Results are expressed as percentages with respect to the basal invasion, considered as 100% (* p-value < 0.05; ** p-value < 0.005; *** p-value < 0.001).

[2] = system: U138-MG cells; experiment: Cell viability/proliferation (Trypan blue), U138-MG; type: cell-based, human; conditions: 1 nM or 100 nM, 72–96 h
Protocol: (§3) Cell viability was tested in DMEM/10% FBS, in the presence of 1 nM or 100 nM uPAcyclin, either by Trypan blue exclusion or by thiazolyl blue tetrazolium bromide (MTT) assays, as specified in the figure legends. For the Trypan blue assay, 4 × 10^4 U87-MG, U251-MG, U138-MG, and C6 cells/sample were grown in 12-well plates, and followed for 24, 48 and 72 h. As a negative control, the cells were grown in a serum-free medium. Then, the cells were detached, stained with a 0.2% (w/v) Trypan blue solution, counted using a Burker chamber (T0 = 100%), and reported as number of viable cells/total.

[3] = system: U251-MG cells; experiment: Boyden chamber Matrigel invasion, U251-MG; type: cell-based, human; conditions: for invasion, % of basal, average 2 expts: mean of 2 expts; for invasion, % of basal, average expt 1: mean of expt 1; for invasion, % of basal, average expt 2: mean of expt 2; for invasion, % of basal, T-test list: single replicates of both expts
Protocol: as §1, §2

[4] = system: C6 cells; experiment: Vasculogenic mimicry (tube formation on Geltrex), C6; type: cell-based, rat; conditions: C6, 16 h
Protocol: The tube formation assay was performed in 96-well plates pre-coated with 50 µL/well of Geltrex^TM (Thermofisher, Scientific, Waltham, MA, USA), and polymerized for 30 min at 37 °C. Briefly, 3 × 10^4 U87-MG, 1.5 × 10^4 U251, and 1 × 10^4 C6 cells/100µL/well were plated onto Geltrex^TM and monitored at 37 °C for the indicated times. The specific effectors were included at time 0. The formation of vascular-like structures by Geltrex^TM-plated U87-MG and U251-MG cells was monitored for 24 h, whereas C6 cells were tested for 16 h. The evaluation of the branching point number, defined as the intersection of at least 3 tubes [24], was performed using the Inverted Microscope DMI Leica 6000 for the U87-MG and U251-MG cells and the Inverted Microscope Axiovert 25 for the C6 cells. At the indicated times, the number of “branching points” was assessed in 4/5 random fields using the ImageJ 1.52a Software.
Figure 7 Vascular mimicry formation by C6 rat cells and inhibition by uPAcyclin. […] (B) After 16 h, the number of branching points was evaluated as described in the legend to Figure 5 and reported in the relative histogram (*** p-value < 0.001).

[5] = system: C6 cells; experiment: Cell viability/proliferation (Trypan blue, MTT), C6; type: cell-based, rat; conditions: C6, Trypan blue exclusion and MTT
Protocol: as §3
For the MTT assay, 5 × 10^3 U87-MG and C6 cells/well were grown in 96-well plates for 24 h and tested as previously described. Briefly, MTT (Invitrogen-Life Technologies, Eugene, OR, USA) 5 mg/mL in a PBS solution was added to wells at a 10% final concentration, and incubated for 3 h at 37 °C, followed by the addition of stop solution (100 µL of DMSO/well) for 1 h at room temperature. Then, the optical densities were measured at 495 nm using the Microplate Reader (Synergy HT, Bio-Tek, Winoosky, VT, USA). The cell viability rate was calculated as a percentage by reporting the mean absorbance of treated groups to control groups, as follows: Cell viability rate (%) = (Atreated group/Acontrol group) × 100.

[6] = 100 nM, 5% FBS, 5 h, expt 1, duplicates
[7] = 100 nM, 5% FBS, 5 h, expt 2, duplicates
[8] = 1 µM, 5% FBS, 5 h, expt 1, duplicates
[9] = 1 µM, 5% FBS, 5 h, expt 2, duplicates

## Ac-K^1P[ESPPEELK^10]-NH2 (sidechain bridge or staple) [uPAcyclin]
[1]; 100 nM, U138-MG, 5% FBS, 5 h
  reduction in invasion: 50–60%
[1]; [6]
  invaded cell number/field: 10 cell number/field and 8 cell number/field
  invasion, % of basal: 143% and 114%
[1]; [7]
  invaded cell number/field: 9 cell number/field and 8 cell number/field
  invasion, % of basal: 150% and 133%
[1]; 100 nM, 5% FBS, 5 h
  invasion, % of basal, average 2 expts: 135%
  invasion, % of basal, average expt 1: 129%
  invasion, % of basal, average expt 2: 142%
[1]; 100 nM
  invasion, % of basal, T-test list: 143 and 114 and 150 and 133
[1]; 1 µM, U138-MG, 5% FBS, 5 h
  invasion, in words: reduced invasion to basal levels
[1]; [8]
  invaded cell number/field: 7 cell number/field and 6 cell number/field
  invasion, % of basal: 100% and 86%
[1]; [9]
  invaded cell number/field: 6 cell number/field and 5 cell number/field
  invasion, % of basal: 100% and 83%
[1]; 1 µM, 5% FBS, 5 h
  invasion, % of basal, average 2 expts: 92%
  invasion, % of basal, average expt 1: 93%
  invasion, % of basal, average expt 2: 92%
[1]; 1 µM
  invasion, % of basal, T-test list: 100 and 86 and 83
[2]
  proliferation/viability: unaffected by uPAcyclin, regardless of the concentration employed
[3]; 100 nM, U251-MG, 5% FBS, 5 h
  reduction in invasion: 50–60%
[3]; [6]
  invaded cell number/field: 14 cell number/field
  invasion, % of basal: 156%
[3]; [7]
  invaded cell number/field: 15 cell number/field and 14 cell number/field
  invasion, % of basal: 136% and 127%
[3]; 100 nM, 5% FBS, 5 h
  invasion, % of basal, average 2 expts: 144%
  invasion, % of basal, average expt 1: 156%
  invasion, % of basal, average expt 2: 132%
[3]; 100 nM
  invasion, % of basal, T-test list: 156 and 136 and 127
[3]; 1 µM, U251-MG, 5% FBS, 5 h
  invasion, in words: reduced invasion to basal levels
[3]; [8]
  invaded cell number/field: 11 cell number/field and 9 cell number/field
  invasion, % of basal: 122% and 100%
[3]; [9]
  invaded cell number/field: 12 cell number/field and 10 cell number/field
  invasion, % of basal: 109% and 91%
[3]; 1 µM, 5% FBS, 5 h
  invasion, % of basal, average 2 expts: 106%
  invasion, % of basal, average expt 1: 111%
  invasion, % of basal, average expt 2: 100%
[3]; 1 µM
  invasion, % of basal, T-test list: 122 and 100 and 109 and 91
[4]; 10 pM
  inhibition of branching point number: 40%
[4]; 100 nM
  inhibition of branching point number: 60%
[5]
  proliferation/viability: proliferation and viability are not affected by uPAcyclin
